Test results from patent US20080306056A1, “PYRAZOLE-DERIVATIVES AS FACTOR Xa INHIBITORS” (SANOFI-AVENTIS DEUTSCHLAND GMBH, priority 2002, published 2008).

Target: T1, human factor Xa (Homo sapiens, UniProt P00742)
T1 construct: 25 μl human factor Xa (Enzyme Research Laboratories, Inc; South Bend, Ind.); purchased Enzyme Research Laboratories, Inc; South Bend, Ind
Experiment: Factor Xa assay (chromogenic, purified enzyme)
Type: biochemical
Conditions: inhibition constant for factor Xa; chromogenic substrate S-2765 140 μM, enzyme 0.5 nM, 25° C., pH 7.8; Ki=IC50/{1+(substrate concentration/Km)}; read-out: Ki(FXa)
Source text: The ability of the compound of formulae I, Ib and Ic to inhibit factor Xa or factor VIIa or other enzymes like thrombin, plasmin, or trypsin can be assessed by determining the concentration of the compound of the formulae I, Ib and Ic that inhibits enzyme activity by 50%, i.e. the IC50 value, which was related to the inhibition constant Ki. Purified enzymes were used in chromogenic assays. The concentration of inhibitor that causes a 50% decrease in the rate of substrate hydrolysis was determined by linear regression after plotting the relative rates of hydrolysis (compared to the uninhibited control) versus the log of the concentration of the compound of formulae I, Ib and Ic. For calculating the inhibition constant Ki, the IC50 value was corrected for competition with substrate using the formula wherein Km is the Michaelis-Menten constant (Chen and Prusoff, Biochem.
Ki=IC50/{1+(substrate concentration/Km)}
Pharmacol. 22 (1973) 3099-3108; I. H. Segal, Enzyme Kinetics, 1975, John Wiley & Sons, New York, 100-125; which were incorporated herein by reference).
The IC50 was determined by combining in appropriate wells of a Costar half-area microtiter plate 25 μl human factor Xa (Enzyme Research Laboratories, Inc.; South Bend, Ind.) in TBS-PEG; 40 μl 10% (v/v) DMSO in TBS-PEG (uninhibited control) or various concentrations of the compound to be tested diluted in 10% (v/v) DMSO in TBS-PEG; and substrate S-2765 (N(α)-benzyloxycarbonyl-D-Arg-Gly-L-Arg-p-nitroanilide; Kabi Pharmacia, Inc.; Franklin, Ohio) in TBS-PEG.
The assay was performed by pre-incubating the compound of formulae I, Ib and Ic plus enzyme for 10 min. Then the assay was initiated by adding substrate to obtain a final volume of 100 μl. The initial velocity of chromogenic substrate hydrolysis was measured by the change in absorbance at 405 nm using a Bio-tek Instruments kinetic plate reader (Ceres UV900HDi) at 25° C. during the linear portion of the time course (usually 1.5 min after addition of substrate). The enzyme concentration was 0.5 nM and substrate concentration was 140 μM.
The inhibitory activity towards factor VIIa/tissue factor activity was determined using a chromogenic assay essentially as described previously (J. A. Ostrem et al., Biochemistry 37 (1998) 1053-1059 which was incorporated herein by reference). Kinetic assays were conducted at 25° C. in half-area microtiter plates (Costar Corp., Cambridge, Mass.) using a kinetic plate reader (Molecular Devices Spectramax 250). A typical assay consisted of 25 μl human factor VIIa and TF (5 nM and 10 nM, respective final concentration) combined with 40 μl of inhibitor dilutions in 10% DMSO/TBS-PEG buffer (50 mM Tris, 15 mM NaCl, 5 mM CaCl2, 0.05% PEG 8000, pH 8.15). Following a 15 minute preincubation period, the assay was initiated by the addition of 35 μl of the chromogenic substrate S-2288 (D-Ile-Pro-Arg-p-nitroanilide, Pharmacia Hepar Inc., 500 μM final concentration).

T1 sequence (P00742 235-488 limits assumed): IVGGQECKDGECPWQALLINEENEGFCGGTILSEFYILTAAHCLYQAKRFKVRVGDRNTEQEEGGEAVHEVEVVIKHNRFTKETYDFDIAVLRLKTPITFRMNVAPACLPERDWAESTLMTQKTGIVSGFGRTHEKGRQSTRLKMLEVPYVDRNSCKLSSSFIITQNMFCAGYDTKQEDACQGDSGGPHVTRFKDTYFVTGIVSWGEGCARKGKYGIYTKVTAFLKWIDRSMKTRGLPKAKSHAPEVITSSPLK
T1 sequence (P00742 41-179 partner limits assumed): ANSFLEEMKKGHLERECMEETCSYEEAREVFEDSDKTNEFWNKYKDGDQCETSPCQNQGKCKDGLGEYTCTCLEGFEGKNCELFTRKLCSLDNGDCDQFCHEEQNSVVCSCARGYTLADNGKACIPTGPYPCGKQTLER

Row | Compound | Ki [nM]
1 | CC(C)N1CCC(NC(=O)c2cc(C(=O)N3CCNC(=O)C3)nn2Cc2cc(-c3ccc(Cl)s3)on2)CC1 [Example 41, 2-[5-(5-Chloro-thiophen-2-yl)-isoxazol-3-ylmethyl]-5-(3-oxo-piperazine-1-carbonyl)-2H-pyrazole-3-carboxylic acid (1-isopropyl-piperidin-4-yl)-amide] | 81
2 | CC(C)N1CCC(NC(=O)c2cc(C(=O)OCCO)nn2CC(=O)Nc2ccc(Cl)cn2)CC1 [Example 107, 1-[(5-Chloro-pyridin-2-ylcarbamoyl)-methyl]-5-(1-isopropyl-piperidin-4-ylcarbamoyl)-1H-pyrazole-3-carboxylic acid 2-hydroxy-ethyl ester] | 20
3 | CC(C)N1CCC(NC(=O)c2cc(C(=O)N3CC(O)C3)nn2Cc2cc(-c3ccc(Cl)s3)on2)CC1 [Example 83, 2-[5-(5-Chloro-thiophen-2-yl)-isoxazol-3-ylmethyl]-5-(3-hydroxy-azetidine-1-carbonyl)-2H-pyrazole-3-carboxylic acid (1-isopropyl-piperidin-4-yl)-amide] | 104
4 | CC(C)N1CCC(NC(=O)c2cc(C(=O)N3CCOCC3)nn2Cc2cc(-c3ccc(Cl)s3)on2)CC1 [Example 25, 2-[5-(5-Chloro-thiophen-2-yl)-isoxazol-3-ylmethyl]-5-(morpholine-4-carbonyl)-2H-pyrazole-3-carboxylic acid (1-isopropyl-piperidin-4-yl)-amide] | 95
5 | CCCc1nn(Cc2cc(-c3ccc(Cl)s3)on2)c(C(=O)NC2CCN(C(C)C)CC2)c1C#N [Example 10, 2-[5-(5-Chloro-thiophen-2-yl)-isoxazol-3-ylmethyl]-4-cyano-5-propyl-2H-pyrazole-3-carboxylic acid (1-isopropyl-piperidin-4-yl)-amide] | 41
6 | CC(C)N1CCC(NC(=O)c2cc(C(=O)N3CCC(O)C3)nn2Cc2cc(-c3ccc(Cl)s3)on2)CC1 (stereo not shown) [Example 36, 2-[5-(5-Chloro-thiophen-2-yl)-isoxazol-3-ylmethyl]-5-(3-hydroxy-pyrrolidine-1-carbonyl)-2H-pyrazole-3-carboxylic acid (1-isopropyl-piperidin-4-yl)-amide] | 122
7 | CC(C)N1CCC(NC(=O)c2cc(C(=O)N3CCC[C@H]3C(=O)O)nn2Cc2cc(-c3ccc(Cl)s3)on2)CC1 [Example 65, 1-[1-[5-(5-Chloro-thiophen-2-yl)-isoxazol-3-ylmethyl]-5-(1-isopropyl-piperidin-4-ylcarbamoyl)-1H-pyrazole-3-carbonyl]-2S-pyrrolidine-2-carboxylic acid] | 142
8 | CNC(=O)c1cc(C(=O)NC2CCN(C(C)C)CC2)n(Cc2cc(-c3ccc(Cl)s3)on2)n1 [Example 26, 1-[5-(5-Chloro-thiophen-2-yl)-isoxazol-3-ylmethyl]-1H-pyrazole-3,5-dicarboxylic acid 5-[(1-isopropyl-piperidin-4-yl)-amide] 3-methylamide] | 68
9 | COCCN(CCOC)C(=O)c1cc(C(=O)NC2CCN(C(C)C)CC2)n(Cc2cc(-c3ccc(Cl)s3)on2)n1 [Example 31, 1-[5-(5-Chloro-thiophen-2-yl)-isoxazol-3-ylmethyl]-1H-pyrazole-3,5-dicarboxylic acid 3-[bis-(2-methoxy-ethyl)-amide] 5-[(1-isopropyl-piperidin-4-yl)-amide]] | 180
10 | CC(C)N1CCC(NC(=O)c2cc(-c3cccs3)nn2Cc2cc3ccc(Cl)cc3s2)CC1 [Example 15, 2-(6-Chloro-benzo[b]thiophen-2-ylmethyl)-5-thiophen-2-yl-2H-pyrazole-3-carboxylic acid (1-isopropyl-piperidin-4-yl)-amide] | 13
11 | CC(C)N1CCC(NC(=O)c2cc(-c3cccs3)nn2Cc2csc(-c3ccc(Cl)s3)n2)CC1 [Example 14, 2-[2-(5-Chloro-thiophen-2-yl)-thiazol-4-ylmethyl]-5-thiophen-2-yl-2H-pyrazole-3-carboxylic acid (1-isopropyl-piperidin-4-yl)-amide] | 46
12 | COCCNC(=O)c1cc(C(=O)NC2CCN(C(C)C)CC2)n(Cc2cc(-c3ccc(Cl)s3)on2)n1 [Example 47, 1-[5-(5-Chloro-thiophen-2-yl)-isoxazol-3-ylmethyl]-1H-pyrazole-3,5-dicarboxylic acid 5-[(1-isopropyl-piperidin-4-yl)-amide] 3-[(2-methoxy-ethyl)-amide]] | 86
13 | CC(C)N1CCC(NC(=O)c2cc(C(=O)NCC(F)(F)F)nn2Cc2cc(-c3ccc(Cl)s3)on2)CC1 [Example 74, 1-[5-(5-Chloro-thiophen-2-yl)-isoxazol-3-ylmethyl]-1H-pyrazole-3,5-dicarboxylic acid 5-[(1-isopropyl-piperidin-4-yl)-amide] 3-[(2,2,2-trifluoro-ethyl)-amide]] | 86
14 | CC(C)N1CCC(NC(=O)c2cc(C(=O)N3CCC4(CCCC4)CC3)nn2Cc2cc(-c3ccc(Cl)s3)on2)CC1 [Example 38, 5-(8-Aza-spiro[4.5]decane-8-carbonyl)-2-[5-(5-chloro-thiophen-2-yl)-isoxazol-3-ylmethyl]-2H-pyrazole-3-carboxylic acid (1-isopropyl-piperidin-4-yl)-amide] | 932
15 | CC(C)N1CCC(NC(=O)c2c(-c3ccc(Cl)cc3Cl)cnn2Cc2cc(-c3ccc(Cl)s3)on2)CC1 [Example 7, 2-[5-(5-Chloro-thiophen-2-yl)-isoxazol-3-ylmethyl]-4-(2,4-dichloro-phenyl)-2H-pyrazole-3-carboxylic acid (1-isopropyl-piperidin-4-yl)-amide] | 293
16 | CC(C)N1CCC(NC(=O)c2cc(C(C)(C)C)nn2Cc2cc(-c3ccc(Cl)s3)on2)CC1 [Example 9, 5-tert-Butyl-2-[5-(5-chloro-thiophen-2-yl)-isoxazol-3-ylmethyl]-2H-pyrazole-3-carboxylic acid (1-isopropyl-piperidin-4-yl)-amide] | 332
17 | CC(C)N1CCC(NC(=O)c2cc(C(=O)N3CCC(N4CCCC4=O)CC3)nn2Cc2cc(-c3ccc(Cl)s3)on2)CC1 [Example 81, 2-[5-(5-Chloro-thiophen-2-yl)-isoxazol-3-ylmethyl]-5-[4-(2-oxo-pyrrolidin-1-yl)-piperidine-1-carbonyl]-2H-pyrazole-3-carboxylic acid (1-isopropyl-piperidin-4-yl)-amide] | 142
18 | CC(C)N1CCC(NC(=O)c2cc(C(=O)NC3CCS(=O)(=O)C3)nn2Cc2cc(-c3ccc(Cl)s3)on2)CC1 (stereo not shown) [Example 75, 1-[5-(5-Chloro-thiophen-2-yl)-isoxazol-3-ylmethyl]-1H-pyrazole-3,5-dicarboxylic acid 3-[(1,1-dioxo-tetrahydro-1-thiophen-3-yl)-amide] 5-[(1-isopropyl-piperidin-4-yl)-amide]] | 76
19 | O=C(NC1CCN(c2ccncc2)CC1)c1cc(-c2cccs2)nn1Cc1cc(-c2ccc(Cl)s2)on1 [Example 18, 2-[5-(5-Chloro-thiophen-2-yl)-isoxazol-3-ylmethyl]-5-thiophen-2-yl-2H-pyrazole-3-carboxylic acid (3,4,5,6-tetrahydro-2H-[1,4′]bipyridinyl-4-yl)-amide] | 205
20 | CC(C)N1CCC(NC(=O)c2cc(C(=O)N3CCC[C@H]3CO)nn2Cc2cc(-c3ccc(Cl)s3)on2)CC1 [Example 64, 2-[5-(5-Chloro-thiophen-2-yl)-isoxazol-3-ylmethyl]-5-(2S,2-hydroxymethyl-pyrrolidine-1-carbonyl)-2H-pyrazole-3-carboxylic acid (1-isopropyl-piperidin-4-yl)-amide] | 90
21 | CC(C)N1CCC(NC(=O)c2cc(C(=O)N3CCC3)nn2Cc2cc(-c3ccc(Cl)s3)on2)CC1 [Example 77, 5-(Azetidine-1-carbonyl)-2-[5-(5-chloro-thiophen-2-yl)-isoxazol-3-ylmethyl]-2H-pyrazole-3-carboxylic acid (1-isopropyl-piperidin-4-yl)-amide] | 63
22 | CC(C)N1CCC(NC(=O)c2cc(OCC(F)(F)F)nn2CC(=O)Nc2ccc(Cl)cn2)CC1 [Example 105, 2-[(5-Chloro-pyridin-2-ylcarbamoyl)-methyl]-5-(2,2,2-trifluoro-ethoxy)-2H-pyrazole-3-carboxylic acid (1-isopropyl-piperidin-4-yl)-amide] | 21
